Data reported in patent US10710986B2, “PD-1/PD-L1 inhibitors” (Gilead Sciences, Inc., priority 2018, dated 2020).

Each compound was assayed against PD-1/PD-L1 (Homo sapiens (Human), UniProt Q9NZQ7) (assay: PD-1/PD-L1 biochemical protein-protein interaction assay (ALPHA)). Details: 0.3 nM His tagged PD-L1, 2.5 nM biotinylated Fc-PD-1, 60 minutes at 25° C., read-out: IC50 PD-L1-PD1.
Sequence of PD-1/PD-L1 (Q9NZQ7 19-238): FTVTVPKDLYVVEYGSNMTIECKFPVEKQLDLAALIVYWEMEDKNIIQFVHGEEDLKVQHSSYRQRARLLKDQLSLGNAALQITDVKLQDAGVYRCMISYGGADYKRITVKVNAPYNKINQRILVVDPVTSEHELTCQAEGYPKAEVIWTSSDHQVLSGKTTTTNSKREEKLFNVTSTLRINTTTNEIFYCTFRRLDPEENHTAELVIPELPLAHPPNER

Row | IC50 | Compound
1 | 0.244 nM | COc1nc(-c2cccc(-c3cccc(-c4cnc(CNC[C@@H]5CCC(=O)N5)c(OC)n4)c3Cl)c2Cl)cnc1CNCc1cccn(C)c1=O [compound 305]
2 | 0.259 nM | COc1nc(-c2cccc(-c3cccc(-c4cnc(CN5CCC6(CC5)NC(=O)NC6=O)c(OC)n4)c3Cl)c2Cl)cnc1CNC[C@@H]1CCC(=O)N1 [compound 290]
3 | 0.064 nM | COc1nc(-c2cccc(-c3cccc(-c4cnc(CN5CC6(C5)CN(C(C)=O)C6)c(OC)n4)c3F)c2Cl)ccc1CN1CC2(C1)CN(C(C)=O)C2 [compound 617]
4 | 0.1 nM | COc1nc(-c2cccc(-c3cccc(-c4cnc(CN5CC6CC5(CO)C6)c(OC)n4)c3Cl)c2Cl)cnc1CNC[C@@H]1CCC(=O)N1 [compound 53]
5 | 0.335 nM | CCc1nc(-c2cccc(-c3cccc(-c4cnc(CN5CC(O)C5)c(CC)n4)c3Cl)c2Cl)cnc1CN1CC(O)C1 [compound 82]
6 | 0.144 nM | COc1nc(-c2cccc(-c3cccc(-c4cnc(CNC5CS(=O)(=O)C5)c(OC)n4)c3Cl)c2Cl)cnc1CNC[C@@H]1CCC(=O)N1 [compound 560]
7 | 0.553 nM | COc1nc(-c2cccc(-c3cccc(-c4cnc(CN[C@@H]5C[C@@H]5F)c(OC)n4)c3Cl)c2Cl)cnc1CNC[C@@H]1CCC(=O)N1 [compound 178]
8 | 0.216 nM | COC[C@@H]1CCN1Cc1ncc(-c2cccc(-c3cccc(-c4cnc(CNC[C@@H]5CCC(=O)N5)c(OC)n4)c3Cl)c2Cl)nc1OC [compound 310]
9 | 0.175 nM | COc1nc(-c2cccc(-c3cccc(-c4cnc(CN5CC6(C5)CN(C(C)=O)C6)c(OC)n4)c3Cl)c2Cl)cnc1CN1CC2(C1)CN(C(C)=O)C2 [compound 209]
10 | 0.064 nM | COc1nc(-c2cccc(-c3cccc(-c4cc(C)c(CN5CC6(CNC(=O)C6)C5)c(OC)n4)c3F)c2Cl)cnc1CN1CC2(CNC(=O)C2)C1 [compound 651]
11 | 0.27 nM | COc1nc(-c2cccc(-c3cccc(-c4cnc(CN5CC(C#N)C5)c(OC)n4)c3Cl)c2Cl)cnc1CNC[C@@H]1CCC(=O)N1 [compound 10]
12 | 0.246 nM | COc1nc(-c2cccc(-c3cccc(-c4cnc(CN5CCC(C)(OC)C5)c(OC)n4)c3Cl)c2Cl)cnc1CNC[C@@H]1CCC(=O)N1 (some centres unmarked) [compound 443]
13 | 0.546 nM | CNC(=O)[C@H]1CCCN1Cc1ncc(-c2cccc(-c3cccc(-c4cnc(CNC[C@@H]5CCC(=O)N5)c(OC)n4)c3Cl)c2Cl)nc1OC [compound 20]
14 | 4.04 nM | COc1nc(-c2cccc(-c3cccc(-c4cnc(CN(CC5CC5)C[C@@H]5CCC(=O)N5)c(OC)n4)c3Cl)c2Cl)cnc1CN(CC1CC1)C[C@@H]1CCC(=O)N1 [compound 328]
15 | 0.27 nM | COc1nc(-c2cccc(-c3cccc(-c4cnc(CN[C@H]5C[C@H](CO)C5)c(OC)n4)c3Cl)c2Cl)cnc1CN[C@H]1C[C@H](CO)C1 [compound 149]
16 | 0.064 nM | COc1nc(-c2cccc(-c3cccc(-c4cnc(CN5CC6(CCC(=O)N6)C5)c(OC)n4)c3F)c2Cl)ccc1CN1CC2(CCC(=O)N2)C1 [compound 618]
17 | 0.12 nM | COc1nc(-c2cccc(-c3cccc(-c4cnc(CN5CC6(CCC(=O)N6)C5)c(OC5CC5)n4)c3Cl)c2Cl)ccc1CN1CC2(CCC(=O)N2)C1 [compound 636]
18 | 0.359 nM | COc1nc(-c2cccc(-c3cccc(-c4cnc(CN(C)C[C@@H]5CCC(=O)N5)c(OC)n4)c3Cl)c2Cl)cnc1CNC[C@@H]1CCC(=O)N1 [compound 580]
19 | 0.285 nM | COc1nc(-c2cccc(-c3cccc(-c4cnc(CN5CC(C)(O)C5)c(OC)n4)c3Cl)c2Cl)cnc1CNCCO [compound 449]
20 | 1.19 nM | COc1nc(-c2cccc(-c3cccc(-c4cnc(CNC[C@@H]5CCC(=O)N5)c(OC)n4)c3Cl)c2Cl)cnc1CNCC1COC(=O)N1 (some centres unmarked) [compound 281]
21 | 0.102 nM | COc1nc(-c2cccc(-c3cccc(-c4cnc(CN[C@H]5CC[C@@H](O)C5)c(OC)n4)c3Cl)c2Cl)cnc1CNC[C@@H]1CCC(=O)N1 [compound 356]

Row | IC50 | Compound
22 | 0.216 nM | COc1nc(-c2cccc(-c3cccc(-c4cnc(CN5CCCC6(C5)NC(C)=NC6=O)c(OC)n4)c3Cl)c2Cl)cnc1CNC[C@@H]1CCC(=O)N1 (some centres unmarked) [compound 291]
23 | 0.095 nM | COc1nc(-c2cccc(-c3cccc(-c4cnc(CN5CC[C@@H](C(N)=O)C5)c(OC)n4)c3Cl)c2Cl)cnc1CNC[C@@H]1CCC(=O)N1 [compound 535]
24 | 0.2 nM | COc1nc(-c2cccc(-c3cccc(-c4cnc(CN5CC[C@](C)(O)C5)c(OC)n4)c3Cl)c2Cl)cnc1CN1CC[C@](C)(O)C1 [compound 142]
25 | 0.064 nM | COc1nc(-c2cccc(-c3cccc(-c4cnc(CN5CC6(C5)CN(C(C)=O)C6)c(OC)n4)c3Cl)c2Cl)cnc1CN1CC(C)(O)C1 [compound 447]
26 | 1.86 nM | COc1nc(-c2cccc(-c3cccc(-c4cnc(CN(Cc5ccccc5)C[C@@H]5CCC(=O)N5)c(OC)n4)c3Cl)c2Cl)cnc1CNC[C@@H]1CCC(=O)N1 [compound 325]
27 | 0.344 nM | COc1nc(-c2cccc(-c3cccc(-c4cnc(CN(C)C[C@H]5C[C@H](O)C5)c(OC)n4)c3Cl)c2Cl)cnc1CNC[C@@H]1CCC(=O)N1 [compound 459]
28 | 0.101 nM | COc1nc(-c2cccc(-c3cccc(-c4cnc(CNC[C@@H]5CCC(=O)N5)c(OC)n4)c3Cl)c2Cl)cnc1CNCCOc1ccccn1 [compound 620]
29 | 0.474 nM | OC1CN(Cc2ncc(-c3cccc(-c4cccc(-c5cnc(CN6CC(O)C6)c(Cl)n5)c4Cl)c3Cl)nc2Cl)C1 [compound 108]
30 | 2.99 nM | CNc1nc(-c2cccc(-c3cccc(-c4cnc(CNC[C@@H]5CCC(=O)N5)c(OC)n4)c3Cl)c2Cl)cnc1CNC[C@@H]1CCC(=O)N1 [compound 63]
31 | 0.064 nM | COc1nc(-c2cccc(-c3cccc(-c4cnc(CN5CC(C)(O)C5)c(OC)n4)c3Cl)c2Cl)ccc1CNC[C@@H]1CCC(=O)N1 [compound 631]
32 | 0.358 nM | COc1nc(-c2cccc(-c3cccc(-c4cnc(CNC[C@H]5NC(=O)[C@@H]6C[C@H]56)c(OC)n4)c3Cl)c2Cl)cnc1CNC[C@H]1NC(=O)[C@@H]2C[C@H]12 [compound 324]
33 | 0.064 nM | COc1nc(-c2cccc(-c3cccc(-c4cnc(CNC[C@@H]5CCC(=O)N5)c(OC)n4)c3Cl)c2Cl)cnc1CNCCCS(N)(=O)=O [compound 577]
34 | 0.318 nM | COc1nc(-c2cccc(-c3cccc(-c4cnc(CN5CC(OC)C5)c(OC)n4)c3Cl)c2F)cnc1CN1CC(OC)C1 [compound 3]
35 | 0.442 nM | COc1nc(-c2cccc(-c3cccc(-c4cnc(CN5CC[C@H](C(=O)O)C5)c(OC)n4)c3Cl)c2Cl)cnc1CN [compound 585]
36 | 0.321 nM | COc1nc(-c2cccc(-c3cccc(-c4cnc(CN5CCC(C6CCOC6)C5)c(OC)n4)c3Cl)c2Cl)cnc1CNC[C@@H]1CCC(=O)N1 (some centres unmarked) [compound 411]
37 | 0.181 nM | COc1nc(-c2cccc(-c3cccc(-c4cnc(CN5CCC(O)(CO)C5)c(OC)n4)c3Cl)c2Cl)cnc1CNC[C@@H]1CCC(=O)N1 (some centres unmarked) [compound 523]
38 | 0.238 nM | COc1nc(-c2cccc(-c3cccc(-c4cnc(CNCC56CC(O)(C5)C6)c(OC)n4)c3Cl)c2Cl)cnc1CNCC12CC(O)(C1)C2 [compound 544]
39 | 0.194 nM | COc1nc(-c2cccc(-c3cccc(-c4cnc(CN5CC(O)(C6CC6)C5)c(OC)n4)c3Cl)c2Cl)cnc1CNC[C@@H]1CCC(=O)N1 [compound 549]
40 | 0.43 nM | COc1nc(-c2cccc(-c3cccc(-c4cnc(CNC56CC(C#N)(C5)C6)c(OC)n4)c3Cl)c2Cl)cnc1CNC[C@@H]1CCC(=O)N1 [compound 7]
41 | 0.516 nM | COc1nc(-c2cccc(-c3cccc(-c4cnc(CN5CCCC6(C5)NC(=O)NC6=O)c(OC)n4)c3Cl)c2Cl)cnc1CNC[C@@H]1CCC(=O)N1 (some centres unmarked) [compound 293]
